According to US8329420B2, “Screening method for a substance that binds to an intracellular region of TLR4” (Hiroshima University, priority 2006, dated 2012):

Columns and labels:
[1] = target: T1, TLR4 (wild-type and point mutants, TLR4 C747A) (Homo sapiens, UniProt O00206, C747A); experiment: NF-κB luciferase reporter assay in HEK293 cells expressing wild-type or mutant TLR4 after LPS stimulation; format: cell-based; design: expressed in transfected cells; host or cells: HEK293 (human embryonic kidney); details: 0, 30, 100, 300 nmol/L, 2 hr, then LPS 100 ng/mL 4 hr; HEK293; FL/RL ratio; only this mutant (FIG. 3)
Method: (§1) Human embryonic kidney-derived HEK293 was suspended in DMEM containing 10% FCS, plated in a 96 well plate at 2×10^4 cells/well and cultured overnight at 37° C., 5% CO2. The medium was changed to OPTI-MEM (Invitrogen, 50 μL/well) immediately before transfection. A plasmid encoding FLAG-TLR4WT or a mutant thereof (0CA-3CA, PH, 1KR-9KR) was added to 0.5 ng/well, and transfection was performed using a PLUS reagent (Invitrogen) or a LipofectAMINE reagent (Invitrogen) according to a conventional method. The cells were cultured at 37° C., 5% CO2 for 3 hr. After culture, DMEM containing 20% FCS was added to 100 μL/well, and the cells were further cultured overnight to give forced expression cells. As common DNAs, pNiFty (plasmid for NF-κB activation measurement, 15 ng/well), phRL-TK (internal standard plasmid, 15 ng/well), MD-2 plasmid (10 ng/well) and CD14 plasmid (10 ng/well) were transfected together with wild-type TLR4 and each mutant.
(§2) The next day of the transfection, the medium of the forced expression cells was changed to DMEM containing 1% FCS, compound A (ethyl (6R)-6-[N-(2-chloro-4-fluorophenyl)sulfamoyl]-1-cyclohexene-1-carboxylate), compound B (d-ethyl 6-[N-(2,4-difluorophenyl)sulfamoyl]-1-cyclohexene-1-carboxylate), compound C (ethyl 6-[N-(2-bromo-4-fluorophenyl)sulfamoyl]-1-cyclohexene-1-carboxylate), compound D (d-ethyl 6-[(2-chloro-4-fluorobenzyl)sulfonyl]-1-cyclohexene-1-carboxylate) were added to the final concentration of 0, 30, 100, 300 nmol/L and the cells were cultured for 2 hr at 37° C., 5% CO2. LPS was added to 100 ng/mL, and the cells were further cultured for 4 hr. After culture, the luminescence of luciferase was measured using Dual-Glo™ Luciferase Assay System (Promega). For the measurement, the luminescence of firefly luciferase (derived from FL, NF-κB activation) and renilla luciferase (RL, internal standard) was measured, and CPS (counts per second) of FL was amended by CPS of RL to give FL/RL ratio.

[2] = target: T2, TLR4 (wild-type and point mutants, TLR4 C747A) (Homo sapiens, UniProt O00206); experiment: as above; format: cell-based; design: expressed in transfected cells; host or cells: HEK293 (human embryonic kidney); details: concluded from reporter assay with TLR4 mutants, HEK293 (FIG. 3)
Method: as §1, §2

[3] = target: T3, GST-TLR2 intracellular TIR domain fusion protein (Homo sapiens, UniProt O60603); experiment: Pull-down of GST fusion protein-bound beads with ^3H-compound A, SDS-PAGE, autoradiography; format: binding; details: beads reacted at 4° C. overnight; autoradiography (FIG. 1B)
T3 construct: GST and TIR domain of TLR2; made in house; host or cells: Escherichia coli
Method: (§3) Using the above-mentioned primer DNA and TAKARA Ex Taq and after first standing at 95° C. for 2 min in a thermal cycler, PCR was performed 30 cycles with 95° C. for 30 sec, at 55° C. for 30 sec and at 72° C. for 1 min as one cycle. Lastly, an elongation reaction was performed at 72° C. for 10 min. The amplified DNA fragment was cloned using a TA Cloning Kit (Invitrogen). The obtained plasmid vector was treated with a restriction enzyme and electrophoresed on agarose gel. The band was cleaved out using a Sephaglas B and Prep Kit (Amersham) and purified. This was inserted as an insert into vector plasmid pGEX-4T-1 (Amersham) using DNA ligation kit Ver.2 (TAKARA).
(§4) Escherichia coli was transformed with the completed plasmid, and cultured in LB medium containing ampicillin (10 mL) at 37° C. for 18 hr. Culture medium (2.4 mL) was inoculated to LB medium containing ampicillin (130 mL), and subjected to shaking culture. When OD600 became amount 0.9, isopropyl-β-D-thiogalactopyranoside (1 mol/L) was added (130 μL), and the mixture was cultivated at 30° C. for 4 hr. After cultivation, the cells were collected and 10 mL of Lysis Buffer (10 mmol/L Tris pH 7.5, […], 0.5% triton-X-100, 1 mmolp/L PMSF) was added. The cells were disrupted by ultrasonication and centrifuged. To the obtained supernatant was added Glutathione Sepharose 4B (Amersham, 300 μL), and the mixture was gently shaken at 4° C. for 60 min. After the reaction, GST fusion protein-bound beads were washed with TBS (Tris buffered saline, 50 mM Tris-HCl pH7.5, 150 mM NaCl) added with 0.1% Triton X-100.
(§5) The completed GST fusion protein-bound beads and ^3H-compound A (synthesized by Amersham) were reacted at 4° C. overnight. After the reaction, the beads were washed with 0.1% Triton X-100 added TBS, a sample buffer for 5% 2-mercaptoethanol (ME)-containing sodium dodecyl sulfate (SDS)-polyacrylamide gel electrophoresis (PAGE) was added, and the mixture was heated at 100° C. for 5-10 min. The mixture was centrifuged, the supernatant was separated as a labeled protein sample, and the protein was separated by SDS-PAGE. […]

[4] = target: T4, GST-TIRAP fusion protein (Homo sapiens, UniProt P58753); experiment: as above; format: binding; details: beads reacted at 4° C. overnight; autoradiography (FIG. 1B)
T4 construct: made in house; host or cells: Escherichia coli
Method: as §3, §4, §5

[5] = target: T5, GST-TLR4 intracellular TIR domain fusion protein (Homo sapiens, UniProt O00206); experiment: as above; format: binding; details: beads reacted at 4° C. overnight; autoradiography (FIG. 1B)
T5 construct: made in house; host or cells: Escherichia coli
T5 sequence (O00206 674-839): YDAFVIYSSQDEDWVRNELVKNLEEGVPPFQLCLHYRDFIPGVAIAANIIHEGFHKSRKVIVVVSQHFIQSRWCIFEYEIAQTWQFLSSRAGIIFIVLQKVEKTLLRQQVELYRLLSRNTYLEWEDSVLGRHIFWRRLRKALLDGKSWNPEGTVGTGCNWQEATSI
Method: as §3, §4, §5

[6] = target: T1, TLR4 (wild-type and point mutants, TLR4 C747A); experiment: Binding of ^3H-compound A to FLAG-TLR4 wild-type and point mutants expressed in COS-7 cells (anti-FLAG immunoprecipitation, autoradiography); design: expressed in transfected cells; details: 100 nmol/L, 6 hr, COS-7 cells; only this mutant among 1CA-4CA, PH, 1KR-9KR (FIG. 2)
From the text: (§6) cDNA encoding TLR4 was obtained by a conventional method using PCR, and incorporated into expression vector pEFBos. Each point mutant was produced using QuikChange II Site-directed Mutagenesis Kit (manufactured by Stratagene). A mismatch corresponding to a mutation was introduced into both ends of a primer according to the manual of the kit. The produced primers are as follows (mutant introduction sites are underlined). Thereafter, a mutant was produced according to the manual and a competent cell was transformed therewith. Single colonies were picked up, a plasmid was prepared according to a conventional method and DNA sequence was confirmed to give a plasmid containing each mutant TLR4.
(§7) Escherichia coli was transformed with the produced plasmids, about 500-700 μg thereof was each purified using EndoFree (R) Plasmid Maxi Kit (Quiagen). […]
(§8) The immunoprecipitated was applied to SDS-PAGE to separate the protein, and the gel after migration was immersed in a blotting buffer for 15 min to remove SDS. […] The luminescence of the band was photographed on an X ray film, Kodak Biomax-MS, and the protein expression level was confirmed (FIG. 2; the upper panel). The photographed PVDF membrane was washed with PBS-T, photosensitized on imaging plate TR-2040 for 7 days, and the amount of ^3H bound to the expressed protein was measured using BAS-2500 (FUJIFILM Corporation).

[7] = target: T2, TLR4 (wild-type and point mutants, TLR4 C747A); experiment: as above; design: expressed in transfected cells; details: concluded from mutant binding, COS-7 cells (FIG. 2)
From the text: as §6, §7, §8

T1 sequence (O00206 24-839 C747A): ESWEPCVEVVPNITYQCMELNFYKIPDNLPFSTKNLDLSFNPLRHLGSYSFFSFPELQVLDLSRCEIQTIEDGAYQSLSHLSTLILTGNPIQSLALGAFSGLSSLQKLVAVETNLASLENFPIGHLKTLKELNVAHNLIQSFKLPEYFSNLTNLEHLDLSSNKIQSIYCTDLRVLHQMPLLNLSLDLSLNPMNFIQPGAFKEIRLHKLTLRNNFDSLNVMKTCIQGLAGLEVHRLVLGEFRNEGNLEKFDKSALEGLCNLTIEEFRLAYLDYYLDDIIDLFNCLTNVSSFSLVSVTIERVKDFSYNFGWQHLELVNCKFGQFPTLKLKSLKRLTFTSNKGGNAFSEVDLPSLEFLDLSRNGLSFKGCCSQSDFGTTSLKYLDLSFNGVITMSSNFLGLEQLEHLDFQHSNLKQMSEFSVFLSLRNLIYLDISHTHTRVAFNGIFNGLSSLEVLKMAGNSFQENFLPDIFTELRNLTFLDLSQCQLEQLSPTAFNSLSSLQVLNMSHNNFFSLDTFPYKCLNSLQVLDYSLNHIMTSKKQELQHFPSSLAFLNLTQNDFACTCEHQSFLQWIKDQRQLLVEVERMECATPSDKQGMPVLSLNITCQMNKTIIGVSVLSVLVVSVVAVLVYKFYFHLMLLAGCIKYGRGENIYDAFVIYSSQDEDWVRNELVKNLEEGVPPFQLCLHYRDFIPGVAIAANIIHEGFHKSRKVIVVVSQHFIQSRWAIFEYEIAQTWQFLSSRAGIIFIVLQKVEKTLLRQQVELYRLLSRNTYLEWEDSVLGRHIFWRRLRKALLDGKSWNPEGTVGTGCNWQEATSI
T2 sequence (O00206 24-839 C747A): as above
T3 sequence (O60603 639-782 limits assumed): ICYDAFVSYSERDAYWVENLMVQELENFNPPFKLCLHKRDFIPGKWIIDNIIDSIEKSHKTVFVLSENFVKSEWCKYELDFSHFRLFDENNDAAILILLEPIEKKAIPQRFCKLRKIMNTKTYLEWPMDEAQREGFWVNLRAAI
T4 sequence (P58753 1-235 isoform P58753-2): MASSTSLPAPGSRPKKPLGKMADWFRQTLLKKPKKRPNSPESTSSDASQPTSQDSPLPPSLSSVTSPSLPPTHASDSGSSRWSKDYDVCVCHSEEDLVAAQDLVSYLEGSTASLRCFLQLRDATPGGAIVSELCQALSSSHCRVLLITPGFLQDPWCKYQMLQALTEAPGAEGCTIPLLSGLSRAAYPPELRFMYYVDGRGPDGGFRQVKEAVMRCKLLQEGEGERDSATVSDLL

signal suppressing action when 747th cysteine of TLR4 mutated to alanine [1] | binding site in TLR4 through which the signal is suppressed [2] | binding of ^3H-compound A to GST-TLR2 intracellular TIR domain fusion protein [3] | binding of ^3H-compound A to GST-TIRAP fusion protein [4] | binding of ^3H-compound A to GST-TLR4 intracellular TIR domain fusion protein [5] | binding amount of ^3H-compound A to TLR4 with 747th cysteine mutated to alanine [6] | binding site of compound A in TLR4 [7] | Structure (SMILES)
disappeared | selectively bind to the 747th cysteine | – | – | – | – | – | CCOC(=O)C1=CCCCC1S(=O)(=O)Cc1ccc(F)cc1Cl (stereo not drawn) [compound D, d-ethyl 6-[(2-chloro-4-fluorobenzyl)sulfonyl]-1-cyclohexene-1-carboxylate]
disappeared | selectively bind to the 747th cysteine | – | – | – | – | – | CCOC(=O)C1=CCCCC1S(=O)(=O)Nc1ccc(F)cc1F (stereo not drawn) [compound B, d-ethyl 6-[N-(2,4-difluorophenyl)sulfamoyl]-1-cyclohexene-1-carboxylate]
disappeared | selectively bind to the 747th cysteine | – | – | – | – | – | CCOC(=O)C1=CCCCC1S(=O)(=O)Nc1ccc(F)cc1Br (stereo not shown) [compound C, ethyl 6-[N-(2-bromo-4-fluorophenyl)sulfamoyl]-1-cyclohexene-1-carboxylate]
disappeared | selectively bind to the 747th cysteine | not bound | not bound | selectively bound | remarkably decreased | selectively bound to the 747th cysteine | CCOC(=O)C1=CCCC[C@H]1S(=O)(=O)Nc1ccc(F)cc1Cl [compound A, ethyl (6R)-6-[N-(2-chloro-4-fluorophenyl)sulfamoyl]-1-cyclohexene-1-carboxylate]
